Our source for the half-life, MLD and Activity values is ChEMBL document CHEMBL1149571, “Proinsecticide candidates N-(5-methyl-2-oxo-1,3-dioxol-4-yl)methyl derivatives of imidacloprid and 1-chlorothiazolylmethyl-2-nitroimino-imidazolidine” (Bioorg Med Chem Lett, 2007).

Activity calls are given as the source filed them.

Data set [1] is described as follows: Chemical stability assessed as half life of hydrolysis in acidic buffer at pH 5.4. It is filed as physicochemical.
Data set [2] is described as follows: Chemical stability assessed as half life of hydrolysis in alkaline buffer at pH 8.3. It is filed as physicochemical.
A short description of data set [3]: Chemical stability assessed as half life of hydrolysis in physiological solution at pH 7.6. The data set is classed as physicochemical.
In data set [4] the test system is Periplaneta americana. The data set is described as follows: Insecticidal activity against american cockroach after 24 hrs. It is filed as functional.
Data set [5] relates to Periplaneta americana. The data set is described as follows: Activity at nAch receptor in american cockroach neurons assessed as induction of inward current at 10 uM by whole-cell patch clamp method. Background: The patch-clamp technique gives a direct electrical read-out from membranes.

Take `Cc1oc(=O)oc1CN1CCN(Cc2cnc(Cl)s2)/C1=N\[N+](=O)[O-]`: the half-life (usually the time needed for the level to fall by half in the phase considered) in data set [1] was greater than 48 h; in data set [2], 10.6 h; in data set [3], 10.5 h. Further, the MLD in the data set on Periplaneta americana [4] is listed as 6.4 10^-8mol. Besides, the outcome in the data set on Periplaneta americana [5] was Active.
As for `Cc1oc(=O)oc1CN1CCN(Cc2ccc(Cl)nc2)/C1=N\[N+](=O)[O-]`, the half-life in data set [1] is greater than 48 h; in data set [2], 15.5 h; in data set [3], 11.6 h. In addition, the MLD with Periplaneta americana [4] is 6.4 10^-8mol. Besides, the result in the data set with Periplaneta americana [5] was Active.
